Legend:
[1] = Pharmacokinetics of docetaxel after intravenous administration in rats; assay type: in vivo, Wistar rats; conditions: rat, HPLC
Experimental: 6- to 8-week old male Wistar rats were subjected to jugular vein catheterization. […] The rats were administered with a docetaxel solution (a free drug) and docetaxel-loaded PBCA nanoparticles with dual modifications by PEG20000-cholesterol, respectively. […] After treatment, the content of docetaxel in the blood was determined by HPLC.

[2] = Brain tissue distribution of docetaxel in rats; assay type: in vivo, Wistar rats; conditions: rat, tail vein injection, HPLC
Experimental: The rats were subjected to tail vein injection with a docetaxel solution (a free drug), and docetaxel-loaded PBCA nanoparticles with dual modifications by PEG20000-cholesterol, respectively. The rats were killed at different time points after administration, respectively, and the brain tissues were taken, washed with physiological saline and weighed. After treatment, the content of docetaxel in the brain tissue was determined by HPLC.

[3] = tested on: 4T1 cells (mouse breast cancer cells); experiment: Inhibition of tumor cell proliferation in vitro, MTT; assay type: cell-based; conditions: 0.0001 nmol/ml (as docetaxel), 24 h
Experimental: (2) Method: MTT method was used to determine the proliferation state of tumor cells. The particular steps were as followed: 4T1 cells (mouse breast cancer cells) in the logarithmic growth phase were digested and counted, and then seeded to a 96-well plate at a density of 5×10^4/well. […] After further incubation for 24 h and 48 h, respectively, the old medium was pipetted off, and a medium containing 0.5 mg/ml MTT was added to each well. After further incubation for 4 h, the medium was pipetted off, and washing with PBS was performed twice. DMSO (200 μl) was added to dissolve the formazan crystal, and shaking was performed in dark for 10 min; and then the OD value of each well at 490 nm was determined by ELISA instrument. The OD value of the cells incubated without the addition of drug was used as control (100%), and the cell viability for each drug groups were calculated, so as to study the proliferation state of tumor cells, wherein 5 parallel wells were set for each group.

[4] = rat
Experimental: (2) Method: 6- to 8-week old male Wistar rats were randomly divided into 3 groups, with 6 rats for each group. The rats were anesthetized by intraperitoneal injection of a pentobarbital solution (40 mg/kg), and jugular vein catheterization was performed. […] After treatment, the content of coumarin-6 in the blood was determined.

[5] = Brain tissue distribution of coumarin-6 in rats, Experiment 1 (time course); assay type: in vivo, Wistar rats; conditions: rat, tail vein injection
Experimental: (1) Method: 6- to 8-week old male Wistar rats were randomly divided into 3 groups, with 21 rats for each group. The rats were subjected to tail vein injection with an equimolar amount of a coumarin-6 solution (a free drug), coumarin-6-loaded nanoparticles with single modification by cholesterol and PBCA nanoparticles with dual modifications by PEG20000-cholesterol as prepared in Example 1, respectively. The rats were killed at different time points (15 min, 30 min, 1 h, 2 h, 4 h, 8 h, 12 h) after administration, brain tissues were taken, and the content of coumarin-6 in brain was determined.

Molecule | sustained release in vivo (docetaxel detectable in blood) [1] [h] | docetaxel in the brain after intravenous administration [2] | cell viability of the tumor cells [3] | release time in vivo (coumarin-6 detectable in blood) [4] [h] | AUC0-t ([4]; in vivo, iv) [µg·min/mL] | AUC0-∞ ([4]; in vivo, iv) [µg·min/mL] | C0 ([4]; in vivo, iv) [ng/mL] | CL ([4]; in vivo, iv) [mL/min] | Vd, λz ([4]; in vivo, iv) [L] | t1/2, λz ([4]; in vivo, iv) [h] | content of coumarin-6 in the brain tissue ([5]; 15 min-12 h) [ng/g brain tissue] | coumarin-6 in the brain tissue 8 h after administration ([5]; 8 h)
CC(=O)O[C@@]12CO[C@@H]1C[C@H](O)[C@@]1(C)C(=O)[C@H](O)C3=C(C)[C@@H](OC(=O)[C@H](O)[C@@H](NC(=O)OC(C)(C)C)c4ccccc4)C[C@@](O)([C@@H](OC(=O)c4ccccc4)[C@H]21)C3(C)C [docetaxel] | < 2 | could not be detected in the brain | no significant change |  |  |  |  |  |  |  |  | 
coumarin-6 [Free drug] |  |  |  | ≤ 4 | 15.8 ± 2.4 | 16.0 ± 2.3 | 828.4 ± 139.0 | 6.4 ± 0.9 | 0.6 ± 0.3 | 1 ± 0.4 | ≤ 50 | no coumarin-6 was detected

— US11351125B2, “Poly(n-butyl cyanoacrylate) nanoparticle with dual modifications, preparation method and use thereof” (Xuanwu Hospital of Capital Medical University, priority 2016, dated 2022)
